This is an account of results in patent publication US10035778B2, “Meta-azacyclic amino benzoic acid derivatives as pan integrin antagonists” (Saint Louis University, priority 2015, dated 2018).

Assay type in all cases: binding
Test [1] concerns the target Recombinant human integrin α8β1 (Homo sapiens (Human), UniProt P05556+P53708). The test can be described thus: Solid Phase Receptor Assay (SPRA) for α8β1 function. As to conditions: mouse nephronectin-coated plate. Here is the method:
7. Solid Phase Receptor Assay (SPRA) for α8β1 Function
Recombinant mouse nephronectin protein (R&D Systems, Inc, 4298-NP) diluted to 1 μg/mL in TBS+ buffer (25 mM Tris pH 7.4, 137 mM NaCl, 2.7 mM KCl, 1 mM CaCl2, 1 mM MgCl2, 1 mM MnCl2) was added to wells (50 μl/well) of a 96-well half-well transparent microtiter plate (Greiner 675061), and incubated overnight at 4° C. Wells were washed 3 times with 150 μL TBS+ and 150 μL of blocking buffer (TBS+ with 1% bovine serum albumin, Sigma A7906) were added. The plate was incubated for 1 hr at 37° C. and then washed 3× with TBS+. Recombinant human integrin α8β1 (R&D Systems, pre-launch) was diluted to 0.25 μg/mL in TBS+/0.1% bovine serum albumin. Compounds were diluted 1:100 into the integrin solution and 50 μL added to empty wells of the washed nephronectin-coated plate according to a standard template with each sample repeated in triplicate. After incubation for two hours at room temperature, the plate was washed 3× with 150 μL of TBS+. To each well, 50 μL of biotinylated anti-β antibody (R&D Systems, BAF1778) at 0.5 μg/mL in TBS+/0.1% BSA were added and the plate was covered and incubated for 1 hr at room temperature. After washing the plate 3× with 150 μL of TBS+ buffer, 50 μL of streptavidin-conjugated horseradish peroxidase (R&D Systems, DY998) diluted in TBS+ blocking buffer were added to the wells and the plate incubated for 20 min at room temperature. The plate was washed 3× with TBS+ followed by 50 μL of TMB substrate (Sigma T4444) added to each well and the plate incubated for 20 min at room temperature. Plates were read by colorimetric detection at 650 nm wavelength using a Tecan Safire II plate reader. Concentration-response curves were constructed by non-linear regression (best fit) analysis, and IC50 values were calculated for each compound.

Test [2] addresses Recombinant human integrin αvβ1 (Homo sapiens (Human), UniProt P05556+P06756). The test can be described thus: Solid Phase Receptor Assay (SPRA) for αvβ1 function. Conditions: fibronectin-coated plate. As for the experimental part:
2. Solid Phase Receptor Assay (SPRA) for αvβ1 Function
Purified human fibronectin (R&D Systems, 1918-FN) diluted to 5 μg/mL in TBS+ buffer (25 mM Tris pH 7.4, 137 mM NaCl, 2.7 mM KCl, 1 mM CaCl2, 1 mM MgCl2, 1 mM MnCl2) was added to wells (50 μL/well) of a 96-well half-well transparent microtiter plate (Greiner 675061) and incubated overnight at 4° C. Wells were washed 3 times with 150 μL TBS+ and 150 μL of blocking buffer (TBS+ with 1% bovine serum albumin, Sigma A7906) were added. The plate was incubated for 1 hr at 37° C. and then washed 3× with TBS+ buffer. Recombinant human integrin αvβ1 (R&D Systems. 6579-AV) was diluted to 2.0 μg/mL in TBS+/0.1% bovine serum albumin. Compounds were diluted 1:100 into the integrin solution and 50 μL added to empty wells of the washed fibronectin-coated plate according to a standard template with each sample repeated in triplicate. After incubation for two hours at room temperature, the plate was washed 3× with 150 μL of TBS+ buffer. To each well, 50 μL of biotinylated anti-αv antibody (R&D Systems, BAF1219) at 1 μg/mL in TBS+/0.1% BSA were added and the plate covered and incubated for 1 hr at room temperature. After washing the plate 3× with 150 μL of TBS+ buffer, 50 μL of streptavidin-conjugated horseradish peroxidase (R&D Systems, DY998) diluted in TBS+ blocking buffer were added to the wells and the plate incubated for 20 min at room temperature. The plate was washed 3× with TBS+ buffer followed by 50 μL of TMB substrate (Sigma, T4444) added to each well and the plate incubated for 20 min at room temperature. Plates were read by colorimetric detection at 650 nm wavelength using a Tecan Safire II plate reader. Concentration-response curves were constructed by non-linear regression (best fit) analysis, and IC50 values were calculated for each compound.

Test [3] has as its target Recombinant human integrin αvβ6 (Homo sapiens (Human), UniProt P06756+P18564). The test can be described thus: Solid Phase Receptor Assay (SPRA) for αvβ6 function. Conditions: LAP-coated plate. As for the experimental part: 5. Solid Phase Receptor Assay (SPRA) for αvβ6 Function
Recombinant human LAP (R&D Systems, 246-LP) diluted to 0.25 μg/mL in TBS+ buffer (25 mM Tris pH 7.4, 137 mM NaCl, 2.7 mM KCl, 1 mM CaCl2, 1 mM MgCl2, 1 mM MnCl2) was added to wells (50 μL/well) of a 96-well half-well transparent microtiter plate (Greiner 675061) and incubated overnight at 4° C. Wells were washed 3 times with 150 μL TBS+, and 150 μL of blocking buffer (TBS+ with 1% bovine serum albumin, Sigma A7906) were added. The plate was incubated for 1 hr at 37° C., and then washed 3× with TBS+ buffer. Recombinant human integrin αvβ6 (R&D Systems, 3817-AV) was diluted to 0.1 μg/mL in TBS+/0.1% bovine serum albumin. Compounds were diluted 1:100 into the integrin solution and then 50 μL added to empty wells of the washed LAP-coated plate according to a standard template with each sample repeated in triplicate. After incubation for two hours at room temperature, the plate was washed 3× with 150 μL of TBS+ buffer. To each well, 50 μL of biotinylated anti-αv antibody (R&D Systems, BAF1219) at 0.5 μg/mL in TBS+/0.1% BSA were added and the plate was covered and incubated for 1 hr at room temperature. After washing the plate 3× with 150 μL of TBS+ buffer, 50 μL of streptavidin-conjugated horseradish peroxidase (R&D Systems, DY998) diluted in TBS+ blocking buffer were added to the wells and the plate incubated for 20 min at room temperature. The plate was washed 3× with TBS+ buffer followed by 50 μL of TMB substrate (Sigma T4444) added to each well and the plate incubated for 20 min at room temperature. Plates were read by colorimetric detection at 650 nm wavelength using a Tecan Safire II plate reader. Concentration-response curves were constructed by non-linear regression (best fit) analysis, and IC50 values were calculated for each compound.

Sequence of Recombinant human integrin αvβ6 (P06756 31-992): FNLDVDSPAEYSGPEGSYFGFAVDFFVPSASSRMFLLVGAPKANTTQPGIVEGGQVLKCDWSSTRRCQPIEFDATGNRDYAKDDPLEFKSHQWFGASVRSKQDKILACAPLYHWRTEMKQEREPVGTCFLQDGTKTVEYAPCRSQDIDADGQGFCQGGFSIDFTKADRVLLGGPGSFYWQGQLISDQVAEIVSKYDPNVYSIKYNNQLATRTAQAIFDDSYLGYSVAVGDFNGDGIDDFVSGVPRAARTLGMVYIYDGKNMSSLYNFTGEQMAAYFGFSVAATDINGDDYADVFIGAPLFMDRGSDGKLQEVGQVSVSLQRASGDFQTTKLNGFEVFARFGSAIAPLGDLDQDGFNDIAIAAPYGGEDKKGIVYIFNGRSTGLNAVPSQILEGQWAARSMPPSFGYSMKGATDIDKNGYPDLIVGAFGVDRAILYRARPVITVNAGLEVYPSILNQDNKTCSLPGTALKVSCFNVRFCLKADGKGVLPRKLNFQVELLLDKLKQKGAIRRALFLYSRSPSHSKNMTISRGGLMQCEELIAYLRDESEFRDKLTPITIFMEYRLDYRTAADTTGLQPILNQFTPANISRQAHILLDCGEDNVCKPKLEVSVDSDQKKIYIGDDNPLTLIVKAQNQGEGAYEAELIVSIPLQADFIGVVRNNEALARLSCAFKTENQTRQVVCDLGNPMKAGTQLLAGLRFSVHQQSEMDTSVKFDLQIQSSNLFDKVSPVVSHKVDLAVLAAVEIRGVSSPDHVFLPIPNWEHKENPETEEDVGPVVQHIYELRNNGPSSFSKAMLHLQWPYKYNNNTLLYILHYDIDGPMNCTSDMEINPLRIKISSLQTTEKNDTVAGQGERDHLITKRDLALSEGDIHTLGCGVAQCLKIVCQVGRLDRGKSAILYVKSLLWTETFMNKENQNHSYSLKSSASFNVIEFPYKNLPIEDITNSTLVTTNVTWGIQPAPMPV
Sequence of Recombinant human integrin αvβ6 (P18564 22-707): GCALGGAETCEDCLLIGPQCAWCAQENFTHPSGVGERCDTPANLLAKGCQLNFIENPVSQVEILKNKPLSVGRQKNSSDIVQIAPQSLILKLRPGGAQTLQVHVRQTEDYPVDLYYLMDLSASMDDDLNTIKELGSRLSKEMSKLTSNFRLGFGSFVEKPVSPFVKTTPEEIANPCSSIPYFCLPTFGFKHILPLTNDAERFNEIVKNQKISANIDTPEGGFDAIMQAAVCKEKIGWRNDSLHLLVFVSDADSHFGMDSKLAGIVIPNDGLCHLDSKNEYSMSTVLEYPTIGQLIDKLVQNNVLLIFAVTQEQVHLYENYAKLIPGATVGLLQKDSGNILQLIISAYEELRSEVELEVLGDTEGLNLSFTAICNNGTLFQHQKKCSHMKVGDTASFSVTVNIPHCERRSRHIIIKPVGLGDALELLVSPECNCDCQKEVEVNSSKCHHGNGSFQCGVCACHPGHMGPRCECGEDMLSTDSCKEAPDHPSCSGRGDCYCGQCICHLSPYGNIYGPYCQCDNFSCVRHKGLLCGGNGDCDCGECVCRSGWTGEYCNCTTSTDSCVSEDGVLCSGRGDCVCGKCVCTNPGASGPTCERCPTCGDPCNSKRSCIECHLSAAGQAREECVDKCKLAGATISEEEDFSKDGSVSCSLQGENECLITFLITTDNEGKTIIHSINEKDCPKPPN
Sequence of Recombinant human integrin αvβ1 (P06756 31-992): as the sequence (P06756 31-992) above
Sequence of Recombinant human integrin αvβ1 (P05556 21-728): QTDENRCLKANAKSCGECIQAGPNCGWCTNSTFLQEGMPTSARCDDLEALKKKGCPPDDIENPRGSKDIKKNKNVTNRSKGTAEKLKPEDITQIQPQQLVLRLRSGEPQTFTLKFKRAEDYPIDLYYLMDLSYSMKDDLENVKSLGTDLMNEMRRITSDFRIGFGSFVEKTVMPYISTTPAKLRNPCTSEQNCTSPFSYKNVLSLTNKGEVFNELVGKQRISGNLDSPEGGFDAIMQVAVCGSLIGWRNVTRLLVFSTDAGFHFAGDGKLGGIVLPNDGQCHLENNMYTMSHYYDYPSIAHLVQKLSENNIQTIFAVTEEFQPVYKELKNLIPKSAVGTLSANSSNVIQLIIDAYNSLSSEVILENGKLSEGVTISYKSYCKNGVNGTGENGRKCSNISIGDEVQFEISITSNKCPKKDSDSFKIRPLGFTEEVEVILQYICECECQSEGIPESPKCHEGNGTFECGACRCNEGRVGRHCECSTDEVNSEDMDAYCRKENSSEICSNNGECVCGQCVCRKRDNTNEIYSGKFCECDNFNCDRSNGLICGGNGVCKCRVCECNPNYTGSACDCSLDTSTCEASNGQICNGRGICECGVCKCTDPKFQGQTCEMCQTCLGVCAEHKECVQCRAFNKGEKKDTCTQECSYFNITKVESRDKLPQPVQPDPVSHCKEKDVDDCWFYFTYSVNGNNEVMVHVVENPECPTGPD
Sequence of Recombinant human integrin α8β1 (P53708 39-1012): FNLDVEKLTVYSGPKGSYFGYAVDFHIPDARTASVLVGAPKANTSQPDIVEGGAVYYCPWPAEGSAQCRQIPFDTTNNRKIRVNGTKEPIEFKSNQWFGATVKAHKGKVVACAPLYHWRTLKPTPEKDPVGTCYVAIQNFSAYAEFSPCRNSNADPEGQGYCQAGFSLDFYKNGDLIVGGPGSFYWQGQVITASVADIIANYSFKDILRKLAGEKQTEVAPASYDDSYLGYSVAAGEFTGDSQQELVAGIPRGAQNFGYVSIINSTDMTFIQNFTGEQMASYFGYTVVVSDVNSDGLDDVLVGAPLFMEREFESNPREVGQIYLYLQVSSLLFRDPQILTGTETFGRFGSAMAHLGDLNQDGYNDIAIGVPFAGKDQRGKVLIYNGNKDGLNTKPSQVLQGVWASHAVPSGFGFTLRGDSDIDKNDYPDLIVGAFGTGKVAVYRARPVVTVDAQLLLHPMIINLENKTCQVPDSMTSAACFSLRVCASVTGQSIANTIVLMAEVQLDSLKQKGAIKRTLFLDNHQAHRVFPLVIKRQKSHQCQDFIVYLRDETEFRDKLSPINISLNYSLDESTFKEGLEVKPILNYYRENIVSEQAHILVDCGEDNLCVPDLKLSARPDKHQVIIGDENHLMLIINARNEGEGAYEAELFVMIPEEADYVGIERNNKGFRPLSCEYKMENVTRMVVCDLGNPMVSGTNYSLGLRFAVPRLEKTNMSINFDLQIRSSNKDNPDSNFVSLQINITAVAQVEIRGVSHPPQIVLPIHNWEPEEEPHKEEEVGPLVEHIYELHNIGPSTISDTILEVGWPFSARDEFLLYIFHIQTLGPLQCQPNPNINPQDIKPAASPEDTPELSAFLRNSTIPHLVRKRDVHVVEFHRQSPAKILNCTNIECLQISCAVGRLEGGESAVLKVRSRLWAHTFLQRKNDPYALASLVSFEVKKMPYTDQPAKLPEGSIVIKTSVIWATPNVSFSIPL
Sequence of Recombinant human integrin α8β1 (P05556 21-728): as the sequence (P05556 21-728) above

Take `O=C(O)C[C@H](NC(=O)CNC(=O)c1cc(O)cc(NC2=NCC(O)CN2)c1)c1cc(Br)cc(C(F)(F)F)c1` (stereo partly drawn) [Example 2, (3S)-3-(3-bromo-5-(trifluoromethyl)phenyl)-3-(2-(3-hydroxy-5-((5-hydroxy-1,4,5,6-tetrahydropyrimidin-2-yl)amino)benzamido)acetamido)propanoic acid]: the IC50 (commonly the point on the concentration scale where inhibition reaches its midpoint) amounted to 1.5 nM in test [1], 2 nM in test [2] and 0.3 nM in test [3].

Regarding `O=C(O)C[C@H](NC(=O)CNC(=O)c1cncc(NC2=NCC(O)CN2)c1)c1cc(Br)cc(Br)c1` (stereo partly drawn) [Example 14, (3S)-3-(3,5-dibromophenyl)-3-[[2-[[5-[(5-hydroxy-1,4,5,6-tetrahydropyrimidin-2-yl)amino]pyridine-3-carbonyl]amino]acetyl]amino]propanoic acid], the IC50 turned out to be 0.4 nM in test [1], 0.7 nM in test [2] and 0.2 nM in test [3].

For the compound `O=C(O)CC(NC(=O)CNC(=O)c1cc(O)cc(NC2=NCC(O)CN2)c1)c1cc(Br)cc(Br)c1O` (stereo not drawn) [Example C7, reference compound], the IC50 turned out to be 26 nM in test [1], 101 nM in test [2] and 12 nM in test [3].

`Cc1cc(Cl)cc([C@H](CC(=O)O)NC(=O)CNC(=O)c2cc(O)cc(NC3=NCC(O)CN3)c2)c1` (stereo partly drawn) [Example 12, (3S)-3-[3-chloro-5-methyl-phenyl)-3-(2-(3-hydroxy-5-((5-hydroxy-1,4,5,6-tetrahydropyrimidin-2-yl)amino)benzamido)acetamido)propanoic acid]: the IC50 in test [1] was determined as 0.8 nM; in test [2], 4 ± 2 nM; in test [3], 0.6 nM.

`O=C(O)C[C@H](NC(=O)CNC(=O)c1cncc(NC2=NCC(O)CN2)c1)c1cc(Br)cc(C(F)(F)F)c1` (stereo partly drawn) [Example 9, (3S)-3-[3-bromo-5-(trifluoromethyl)phenyl]-3-[[2-[[5-[(5-hydroxy-1,4,5,6-tetrahydropyrimidin-2-yl)amino]pyridine-3-carbonyl]amino]acetyl]amino]propanoic acid]: the IC50 in test [1] came to 0.5 nM; in test [2], 1 nM; in test [3], 0.3 nM.

Consider `O=C(O)C[C@H](NC(=O)CNC(=O)c1cc(O)cc(NC2=NCC(O)CN2)c1)c1cc(Cl)cc(Br)c1O` (stereo partly drawn) [Example C1, reference compound], for which the IC50 came to 8 ± 2 nM in test [1], 17 ± 2 nM in test [2] and 2 ± 1 nM in test [3].

On to `N=C(N)Nc1cccc(C(=O)NCC(=O)NC(CC(=O)O)c2cc(F)cc(C(F)(F)F)c2)c1` (stereo not drawn) [Example C9, reference compound], for which the IC50 in test [1] was 40 nM; in test [2] it was 5 ± 2 nM; in test [3], 1 nM.

For `O=C(O)C[C@H](NC(=O)CNC(=O)c1cc(O)cc(NC2=NCC(O)CN2)c1)c1ccccc1` (stereo partly drawn) [Example C2, reference compound], the IC50 was 3 nM in test [1], 5 nM in test [2] and greater than 1000 nM in test [3].

For the compound `O=C(O)C[C@H](NC(=O)CNC(=O)c1cc(O)cc(NC2=NCC(O)CN2)c1)c1cc(Cl)cc(Cl)c1` (stereo partly drawn) [Example 15, (3S)-3-[3,5-dichloro-phenyl)-3-(2-(3-hydroxy-5-((5-hydroxy-1,4,5,6-tetrahydropyrimidin-2-yl)amino)benzamido)acetamido)propanoic acid], the figures for the IC50 in test [1], in test [2] and in test [3] were 1.2 nM, 4 ± 1 nM and 0.6 nM, respectively.

On to `Cc1cc(Cl)cc([C@@H](CC(=O)O)NC(=O)CNC(=O)c2cc(O)cc(NC3=NCC(O)CN3)c2)c1O` (stereo partly drawn) [Example C10, reference compound], for which the IC50 turned out to be 10 nM in test [1], 14 ± 8 nM in test [2] and 3 nM in test [3].

Regarding `O=C(O)C[C@H](NC(=O)CNC(=O)c1cc(O)cc(NC2=NCC(O)CN2)c1)c1cc(C(F)(F)F)cc(C(F)(F)F)c1` (stereo partly drawn) [Example 10, (3S)-3-[3,5-bis(trifluoromethyl)phenyl)-3-(2-(3-hydroxy-5-((5-hydroxy-1,4,5,6-tetrahydropyrimidin-2-yl)amino)benzamido)acetamido]propanoic acid], the values for the IC50 in test [1], in test [2] and in test [3] were 1.1 nM, 2 ± 1 nM and 0.3 ± 0.1 nM, respectively.

For the compound `Cc1cc(C)cc(C(CC(=O)O)NC(=O)CNC(=O)c2cccc(NC(=N)N)c2)c1` (stereo not drawn) [Example C4, reference compound], the concentration for half-maximal inhibition (IC50) stood at 63 nM in test [1], 10 nM in test [2] and 2 nM in test [3].
